# In patent publication US20260049078A1, “DIFLUORO- AND TRIFLUORO-ACETYL HYDRAZIDES AS SELECTIVE HDAC6 INHIBITORS” (ITALFARMACO S.P.A., priority 2022, published 2026):
# Target: zHDAC6-CD2 wt (Danio rerio (Zebrafish) (Brachydanio rerio), UniProt F8W4B7)
# Test: Isolation of long-lived/tight complex (spin column chromatography with LC-HRMS)
# Type: binding
# Settings: zHDAC6-CD2 wt 1 μM, compound 5 μM, 6 hours, Bio-Spin P-6
# Experimental: Rapid chromatography on spin columns coupled to LC-HRMS was used to attempt the isolation of long-lived/tight complexes between HDAC6 and examples 1 and 1-A. zHDAC6-CD2 wt (1 μM) was incubated with 1 (5 μM) or 1-A (also 5 μM) as described before for 6 hours. An aliquot (60 μL) was loaded on a Bio-Spin P-6 Gel Column (Bio-Rad) that had been equilibrated with assay buffer in order to separate the HDAC6-inhibitors complexes from free compounds. After centrifugation to elute the initial fraction containing most of the enzyme, ten 200 μL aliquots were applied and eluted by centrifugation to collect the low molecular weight (free) compounds. Aliquots of the fractions were subjected to LC-HRMS analysis (as described above) for identification and quantitation of 1 and its derivatives.
# Chain of zHDAC6-CD2 wt (F8W4B7 entry or part of it del 1-439/del 799-1081 limits assumed): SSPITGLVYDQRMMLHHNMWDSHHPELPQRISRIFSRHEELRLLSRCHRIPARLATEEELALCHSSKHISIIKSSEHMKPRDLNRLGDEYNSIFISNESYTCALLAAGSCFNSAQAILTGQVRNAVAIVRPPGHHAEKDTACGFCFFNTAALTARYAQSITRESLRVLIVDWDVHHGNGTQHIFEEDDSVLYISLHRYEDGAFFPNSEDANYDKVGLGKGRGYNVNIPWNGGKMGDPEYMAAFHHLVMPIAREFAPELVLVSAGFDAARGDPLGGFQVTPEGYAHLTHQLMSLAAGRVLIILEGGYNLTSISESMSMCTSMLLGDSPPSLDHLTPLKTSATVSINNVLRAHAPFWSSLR
structure (smiles),measurement,value
FC(F)c1nnc(-c2ccc(Cn3cc(-c4ccc(NC5=NCCN5)cc4)nn3)cc2)o1 [Compound 1-A],co-elution with the enzyme (fraction 1),behaves as a prodrug
